What is called IC50 is the concentration needed to halve the response being measured. One may read the inhibition as the drop in the measured response relative to a control, in per cent.

Here are results for eleven compounds from US10780090B2, “Heteroaryl compounds useful as inhibitors of SUMO activating enzyme” (Millennium Pharmaceuticals, Inc., priority 2014, dated 2020).

This test deals with recombinant human SAE enzyme (Homo sapiens (Human), UniProt Q9UBT2). In words: SAE HTRF enzyme assay. It counts as biochemical. Conditions: for inhibition at 0.111 µM: read-out: Percent Inhibition. The gist of the method: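 This HTRF format monitors Sumo-Flag–Ubc9-GST thioester formation catalysed by 0.11 nM human SAE with 0.5 μM ATP over 105 min at 24° C. Inhibition is expressed at a single concentration or as IC50.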
recombinant human SAE enzyme, sequence (Q9UBT2 whole entry): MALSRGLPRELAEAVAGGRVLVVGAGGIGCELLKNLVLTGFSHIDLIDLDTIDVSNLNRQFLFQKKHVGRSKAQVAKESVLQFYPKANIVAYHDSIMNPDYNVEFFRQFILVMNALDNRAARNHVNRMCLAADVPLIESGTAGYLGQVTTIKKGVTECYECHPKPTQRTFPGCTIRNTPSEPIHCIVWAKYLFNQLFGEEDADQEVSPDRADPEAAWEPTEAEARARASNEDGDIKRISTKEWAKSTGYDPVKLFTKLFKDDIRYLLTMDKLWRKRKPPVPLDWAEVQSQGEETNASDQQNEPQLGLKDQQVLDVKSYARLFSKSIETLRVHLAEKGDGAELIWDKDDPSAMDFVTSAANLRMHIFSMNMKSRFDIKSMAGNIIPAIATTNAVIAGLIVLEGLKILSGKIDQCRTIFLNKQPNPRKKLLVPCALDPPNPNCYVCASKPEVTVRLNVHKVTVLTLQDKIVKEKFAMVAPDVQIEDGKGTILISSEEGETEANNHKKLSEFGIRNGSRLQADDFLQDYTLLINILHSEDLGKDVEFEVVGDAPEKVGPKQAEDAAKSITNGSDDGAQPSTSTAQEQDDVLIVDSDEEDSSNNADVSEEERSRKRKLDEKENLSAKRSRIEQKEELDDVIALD
recombinant human SAE enzyme, sequence (Q9UBE0 whole entry partner): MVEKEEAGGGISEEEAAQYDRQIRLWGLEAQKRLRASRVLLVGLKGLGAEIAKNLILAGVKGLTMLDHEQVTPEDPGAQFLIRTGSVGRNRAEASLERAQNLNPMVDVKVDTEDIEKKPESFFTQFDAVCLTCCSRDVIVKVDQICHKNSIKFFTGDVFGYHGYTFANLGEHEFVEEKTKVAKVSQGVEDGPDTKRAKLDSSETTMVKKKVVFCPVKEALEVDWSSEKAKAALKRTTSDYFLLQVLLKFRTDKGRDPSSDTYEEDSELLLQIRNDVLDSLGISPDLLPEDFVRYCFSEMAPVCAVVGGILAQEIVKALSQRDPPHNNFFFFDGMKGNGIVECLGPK
For orientation: In TR-FRET formats the signal depends on donor and acceptor labels being close together.

Some results are limits rather than exact numbers.

Consider `C[C@](O)(c1cccc(Cl)c1)c1coc(C(=O)c2cncnc2N[C@@H]2C[C@H](COS(N)(=O)=O)[C@@H](O)C2)c1` (single isomer, unassigned) [I-30a, {(1R,2S,4R)-4-[(5-{4-[(1S)-1-(3-chlorophenyl)-1-hydroxyethyl]-2-furoyl}pyrimidin-4-yl)amino]-2-hydroxycyclopentyl}methyl sulfamate or {(1R,2S,4R)-4-[(5-{4-[(1R)-1-(3-chlorophenyl)-1-hydroxyethyl]-2-furoyl}pyrimidin-4-yl)amino]-2-hydroxycyclopentyl}methyl sulfamate], for which the “Percent Inhibition” value (Concentration 0.111 μM) worked out at 100. Besides, under “class symbols A/B/C”, the IC50 was less than 10 nM.

For `Cc1sc(C(=O)c2cncnc2N[C@@H]2C[C@H](COS(N)(=O)=O)[C@@H](O)C2)cc1[C@H]1NCCc2ccc(Cl)cc21` [I-263b, [(1R,2S,4R)-4-{[5-({4-[(1S)-7-chloro-1,2,3,4-tetrahydroisoquinolin-1-yl]-5-methyl-2-thienyl}carbonyl)pyrimidin-4-yl]amino}-2-hydroxycyclopentyl]methyl sulfamate], for the setting “Concentration 0.111 μM”, the inhibition at 0.111 µM amounted to 89%. For the same compound, for the setting “class symbols A/B/C”, the IC50 was in the range of 10 to 100 nM.

For the compound `Cc1sc(C(=O)c2cncnc2NC2CC(O)C(COS(N)(=O)=O)C2)cc1[S+]([O-])c1ccccc1` (mixture of isomers) [I-68, [(1R,2S,4R)-2-hydroxy-4-{[5-({5-methyl-4-[(R)-phenylsulfinyl]-2-thienyl}carbonyl)pyrimidin-4-yl]amino}cyclopentyl]methyl sulfamate and [(1R,2S,4R)-2-hydroxy-4-{[5-({5-methyl-4-[(S)-phenylsulfinyl]-2-thienyl}carbonyl)pyrimidin-4-yl]amino}cyclopentyl]methyl sulfamate], the “Percent Inhibition” value (Concentration 0.111 μM) turned out to be 98. Moreover, the IC50 (class symbols A/B/C) is less than 10 nM.

As for `C[C@@](O)(c1cccc(Br)c1)c1csc(C(=O)c2cncnc2N[C@@H]2C[C@H](COS(N)(=O)=O)[C@@H](O)C2)c1.C[C@](O)(c1cccc(Br)c1)c1csc(C(=O)c2cncnc2N[C@@H]2C[C@H](COS(N)(=O)=O)[C@@H](O)C2)c1` (mixture of isomers) [I-3, [(1R,2S,4R)-4-{[5-({4-[(1S)-1-(3-Bromophenyl)-1-hydroxyethyl]-2-thienyl}carbonyl)pyrimidin-4-yl]amino}-2-hydroxycyclopentyl]methyl sulfamate and [(1R,2S,4R)-4-{[5-({4-[(1R)-1-(3-Bromophenyl)-1-hydroxyethyl]-2-thienyl}carbonyl)pyrimidin-4-yl]amino}-2-hydroxycyclopentyl]methyl sulfamate], under “Concentration 0.111 μM”, the “Percent Inhibition” value is 100. In addition, the IC50 (class symbols A/B/C) was less than 10 nM.

As for `NS(=O)(=O)OC[C@H]1C[C@@H](Nc2ncncc2C(=O)c2cc([C@@H]3CCCc4ccc(Cl)cc43)cs2)C[C@@H]1O` (single isomer, unassigned) [I-335b, [(1R,2S,4R)-4-{[5-({4-[(1R)-7-chloro-1,2,3,4-tetrahydronaphthalen-1-yl]-2-thienyl}carbonyl)pyrimidin-4-yl]amino}-2-hydroxycyclopentyl]methyl sulfamate or [(1R,2S,4R)-4-{[5-({4-[(1S)-7-chloro-1,2,3,4-tetrahydronaphthalen-1-yl]-2-thienyl}carbonyl)pyrimidin-4-yl]amino}-2-hydroxycyclopentyl]methyl sulfamate], the “Percent Inhibition” value (SAE inhibition at compound concentration 0.111 μM) is 41%. Under “SAE inhibition, class symbols, legend in nM”, the IC50 was 100 to 1000 nM.

For `NS(=O)(=O)OC[C@H]1C[C@@H](Nc2ncncc2C(=O)c2cc([C@@H](O)c3cccc(Br)c3)c(Cl)s2)C[C@@H]1O` (single isomer, unassigned) [I-16a, [(1R,2S,4R)-4-{[5-({4-[(S)-(3-Bromophenyl)(hydroxy)methyl-5-chloro-2-thienyl}carbonyl)pyrimidin-4-yl]amino}-2-hydroxycyclopentyl]methyl sulfamate or [(1R,2S,4R)-4-{[5-({4-[(R)-(3-Bromophenyl)(hydroxy)methyl]-5-chloro-2-thienyl}carbonyl)pyrimidin-4-yl]amino}-2-hydroxycyclopentyl]methyl sulfamate], under “Concentration 0.111 μM”, the “Percent Inhibition” value was determined as 99. The IC50 (class symbols A/B/C) is less than 10 nM.

With `COc1ccccc1OCc1csc(C(=O)c2cncnc2N[C@@H]2C[C@H](COS(N)(=O)=O)[C@@H](O)C2)c1` [I-80, [(1R,2S,4R)-2-hydroxy-4-{[5-({4-[(2-methoxyphenoxy)methyl]-2-thienyl}carbonyl)pyrimidin-4-yl]amino}cyclopentyl]methyl sulfamate], the inhibition at 0.111 µM (Concentration 0.111 μM) stood at 98%. Further, the IC50 (class symbols A/B/C) was less than 10 nM.

Turning to `NS(=O)(=O)OC[C@H]1C[C@@H](Nc2ncncc2C(=O)c2cc(Cc3cccc(Cl)c3)c([C@@H]3CCCO3)s2)C[C@@H]1O` (mixture of isomers) [I-41, [(1R,2S,4R)-4-{[5-({4-(3-chlorobenzyl)-5-[(2S)-tetrahydrofuran-2-yl]-2-thienyl}carbonyl)pyrimidin-4-yl]amino}-2-hydroxycyclopentyl]methyl sulfamate and [(1R,2S,4R)-4-{[5-({4-(3-chlorobenzyl)-5-[(2R)-tetrahydrofuran-2-yl]-2-thienyl}carbonyl)pyrimidin-4-yl]amino}-2-hydroxycyclopentyl]methyl sulfamate], for the setting “Concentration 0.111 μM”, the “Percent Inhibition” value was 99. Where the note is “class symbols A/B/C”, the IC50 was less than 10 nM.

Regarding `Cc1sc(C(=O)c2cncnc2N[C@@H]2C[C@H](COS(N)(=O)=O)[C@@H](O)C2)cc1[C@H]1OCC(F)(F)c2ccc(Cl)nc21` (single isomer, unassigned) [I-260b, [(1R,2S,4R)-4-{[5-({4-[(8R)-2-chloro-5,5-difluoro-5,8-dihydro-6H-pyrano[3,4-b]pyridin-8-yl]-5-methyl-2-thienyl}carbonyl)pyrimidin-4-yl]amino}-2-hydroxycyclopentyl]methyl sulfamate or [(1R,2S,4R)-4-{[5-({4-[(8S)-2-chloro-5,5-difluoro-5,8-dihydro-6H-pyrano[3,4-b]pyridin-8-yl]-5-methyl-2-thienyl}carbonyl)pyrimidin-4-yl]amino}-2-hydroxycyclopentyl]methyl sulfamate], the “Percent Inhibition” value (Concentration 0.111 μM) worked out at 98. The IC50 (class symbols A/B/C) is less than 10 nM.

Consider `NS(=O)(=O)OC[C@H]1C[C@@H](Nc2ncncc2C(=O)c2cc(Sc3cccc(C(F)(F)F)c3)c(Cl)s2)C[C@@H]1O` [I-189, [(1R,2S,4R)-4-({5-[(5-chloro-4-{[3-(trifluoromethyl)phenyl]sulfanyl}-2-thienyl)carbonyl]pyrimidin-4-yl}amino)-2-hydroxycyclopentyl]methyl sulfamate], for which the inhibition at 0.111 µM (Concentration 0.111 μM) was found to be 78%. Also, the IC50 (class symbols A/B/C) lay within 10 to 100 nM.

For the compound `NS(=O)(=O)OC[C@H]1C[C@@H](Nc2ncncc2C(=O)c2cc([C@@]3(c4cccc(Cl)c4)CCCN3)cs2)C[C@@H]1O` (single isomer, unassigned) [I-38b, [(1R,2S,4R)-4-{[5-({4-[(2S)-2-(3-chlorophenyl)pyrrolidin-2-yl]-2-thienyl}carbonyl)pyrimidin-4-yl]amino}-2-hydroxycyclopentyl]methyl sulfamate or [(1R,2S,4R)-4-{[5-({4-[(2R)-2-(3-chlorophenyl)pyrrolidin-2-yl]-2-thienyl}carbonyl)pyrimidin-4-yl]amino}-2-hydroxycyclopentyl]methyl sulfamate], the “Percent Inhibition” value (Concentration 0.111 μM) is reported as 98. Besides, the IC50 (class symbols A/B/C) is less than 10 nM.
